Data taken from patent US20100278849A1, “PROSTATIC ACID PHOSPHATASE ANTIGENS” (priority 2004, published 2010).
Several values for one entry are separate records, joined by “and”; a condition that tells them apart may be missing. Equal entries are not always repeated. Entries after “also recorded” stand apart in the source; their conditions may differ.

How the values were obtained:
HLA-A2*0201 = HLA-A2*0201 (Homo sapiens, UniProt P04439, D140Y/D185E/D98H/E176V/E277Q/G131W/G231S/I119V/I121R/I166T/I218V/L300P/L318F/N151K/N90K/P208A/P217A/Q86G/Q94H/R138H/R169H/T345S); format: cell-based; details: peptide at 100, 10 and 1 μM; compared with positive control influenza M1 peptide; three independent experiments
RMAS-HLA-A2 cells = test: 51Chromium cytotoxicity assay of splenocytes from HLA-A2.1/Kb mice against peptide-pulsed RMAS cells; format: cell-based; details: for % cytoxicity at 50:1 ratio RMAS + irrel.: targets pulsed with irrelevant peptide
LNCaP cells = test: 51Chromium cytotoxicity assay of splenocytes from PAP.135 immunised mice against LNCaP cells; format: cell-based, human; details: LNCaP express HLA-A2 and PAP
Procedure: (c): Cytotoxicity against LNCaP cells by splenocytes derived from PAP.135 immunised mice. Results are representative of 10 mice and 2 individual experiments.
(§1) LNCaP is a human prostate cancer cell-line known to express HLA-A2 and PAP. Cells were propagated in RPMI 1640 media (GibcoBRL, UK) supplemented with 10% foetal calf serum (BioWhittaker, Belgium), 100 U/ml penicillin with 100 μg/ml streptomycin (GibcoBRL, UK), 5 ng/ml hydrocortisone and 5 ng/ml testosterone (Sigma, USA). […] Cells were grown in suspension in tissue culture flasks containing RPMI 1640 (GibcoBRL, UK) with 10% foetal calf serum (FCS) (BioWhittaker, Belgium) and 1% L-glutamine supplement (GibcoBRL, UK).
Target cells were pulsed overnight with test peptide or an irrelevant HLA-A2 binding epitope and labelled for 1 hour with 1.85 MBq ^51Chromium. For cytotoxicity assays involving tumour cell-lines, cells were treated with 100 U/ml IFN-γ for 24 hours prior to ^51Chromium labelling. Target cells were washed and allowed to stand in CTL media for 1 hour before washing again. […] HLA-A2 dependence was determined by the addition of anti-HLA-A2 antibody (Serotec, UK) to some wells. […] Supernatants were harvested and analysed using a Top Count™ gamma counter (Can berra-Packard, USA). Specific lysis was determined as follows: […]

LCL cells = test: 51Chromium cytotoxicity assay of splenocytes from PAP.135 immunised mice against LCL cells; format: cell-based, human; details: LCL express HLA-A2 but not PAP
Procedure: as §1
Target cells were pulsed overnight with test peptide or an irrelevant HLA-A2 binding epitope and labelled for 1 hour with 1.85 MBq ^51Chromium. For cytotoxicity assays involving tumour cell-lines, cells were treated with 100 U/ml IFN-γ for 24 hours prior to ^51Chromium labelling. Target cells were washed and allowed to stand in CTL media for 1 hour before washing again. Target cells and effector CTLs were co-incubated at various ratios in 96-well plates in a final volume of 200 μl for 4 hours at 37° C. HLA-A2 dependence was determined by the addition of anti-HLA-A2 antibody (Serotec, UK) to some wells. Maximum and spontaneous release of ^51Chromium was ascertained by incubating target cells with 2% SDS or media alone, respectively. Supernatants were harvested and analysed using a Top Count™ gamma counter (Can berra-Packard, USA). Specific lysis was determined as follows: […]

IFN-γ [1] = test: IFN-γ release by splenocyte (CTL) cultures, ELISA; format: cell-based, mice
Procedure: After at least 7 and not more than 10 days, immunised animals were killed, and the spleens recovered into transport media. Spleens were gently macerated and flushed by injecting 10 ml “CTL culture media” (RPMI 1640, 1% L-glutamine, 10% FCS (PAA labs), 20 mM Hepes, 50 μM 2-mercaptoethanol, 50 U/ml penicillin, 500 U/ml streptomycin and 0.25 μg/ml fungizone) under pressure through a fine bore hypodermic needle introduced through the spleen capsule, thus facilitating the isolation of splenocytes. The remaining tissue was diced and digested for 1 hour at 37° C. using an enzyme cocktail (IMDM containing […] 2-ME, 100 U/ml penicillin+1000 U/ml streptomycin, 8 mg/ml collagenase and 1% DNAse). The flushed and digested cell populations were washed and pooled, and then seeded into 15 wells of a 24 well-plate at 5×10^6 cells/well in 2 ml of media containing 20 μg peptide. The test peptide was added to 12 wells, while 3 wells received an irrelevant class-I peptide as a control. Splenocyte cultures were incubated for 5 days at 37° C.
(§2) Aliquots of supernatants were removed from CTL cultures on days 1 and 5 and on days 2 and 5 from CD4′ T cell cultures and stored at −20° C. until required. ELISA was used to quantitate concentrations of murine IFN-γ and IL-5 (R&D systems, UK).
Figures represent the ratio of IFN-γ released by splenocytes stimulated in vitro by PAP.135 to IFN-γ released by splenocytes stimulated in vitro by an irrelevant HLA-A2*0201 CTL epitope. The mean results of 10 experiments using splenocytes derived from PAP.135-immunised mice are given, and 1 in which splenocytes derived from non-immunised (naive mice) were used.

HLA-DRβ1*0401 = test: Proliferation of splenocytes from immunised HLA-DR4 mice with peptide-pulsed BM-DC (tritiated thymidine); format: cell-based
Procedure: (§3) HLA-A2.1/K^b mice were immunised with an emulsion consisting of 100 μg of the putative class-I peptide epitope and 100 μg of non-specific class-II peptide derived from hepatitis B virus in 50% incomplete Freund's adjuvant (IFA). HLA-DR4- and HLA-DR1-transgenic mice were immunised twice at one week interval with 100 μg of class-II peptide emulsified in 50% incomplete Freund's adjuvant (IFA) and 50% PBS. All vaccine were delivered as a 100 μl intradermal bolus inoculum at the base of the tail.
(§4) 0DC were generated using a method adapted from Inaba et al (Inaba et al. 1992). Briefly, femurs and tibias were harvested aseptically from non-immunised DR1 or DR4 transgenic mice and placed in sterile PBS supplemented with 50 IU/ml penicillin, 50 μg/ml streptomycin, and 0.25 μg/ml fungizone. The marrow was flushed out of the bone using BM-DC media (RPMI 1640 medium supplemented with 2 mM glutamine, 5% FCS, 10 mM Hepes, 501M 2-ME, 50 μg/ml penicillin, 50 μg/ml streptomycin, 0.25 μg/ml fungisone and 10% of supernatant collected from X-63 cells). The cells were washed once in BM-DC media and plated in 24-well plates at 10^6/well in 1 ml DC media and incubated at 37° C. in a 5% CO2 humidified atmosphere. On days 2 and 4, the non-adherent cells (T cells, B cells, granulocytes) were removed, and the remaining cells were cultured in fresh DC medium. After 7-9 days, clusters of loosely adherent DC were dislodged and collected by gently pipetting, before being washed and seeded in 24-well plates at 0.5×10^6 cells/well in 1 ml DC media. Peptides were added at 1 μg/well and the plates were incubated at 37° C. 1 μg/ml of LPS was added after 5 hours, and the plates were incubated overnight at 37° C. in a 5% CO2 in air-humidified atmosphere.
(§5) After 6 days, the spleens from immunised animals were collected and the cells flushed out using T cell media (RPMI+10% FCS+20 mM HEPES buffer+50 μM 2-mercaptoethanol+50 U/ml penicillin/streptomycin+0.25 μg/ml fungizone). The remaining splenic tissue was digested using an enzyme cocktail (0.1 U/ml DNAase (Sigma)+1.6 mg/ml collagenase (Sigma)) for 1 hour at 37° C. The cell suspension obtained was pooled with the flushed cells, washed once, and the splenocytes were plated in 24 well plates with 10 μg/ml of peptide at a density of 2.5×10^6/ml for FVB/N-DR1 or 3.5×10^6/ml for C57BL/6-DR4. Cells were also cultured with an irrelevant peptide as a control. To measure cytokine production, culture supernatants were collected on day 2 and 5 of the culture for the measurement of cytokine by ELISA.
[…] CD8+ T cells were depleted from the cell suspension using anti-CD8+ antibody coupled with magnetic beads (Dynal, UK) as per the manufacturers instructions. Cells were then washed in PBS and resuspended at 5×10^5/ml in T cell medium. 100 μl of T cells was then added to all wells. Anti-DR antibody (L243) or isotype control were added to some wells to confirm the MHC specificity of the T-cell response. LPS-treated dendritic cells were harvested, washed and incubated in 1 ml of DC medium with the addition of 10 íg of peptide at 37° C. for 5 hours. After washing, 10^3 peptide-pulsed DC were added to the relevant wells of lymphocyte cultures in 50 íl media. These plates were then incubated for 3 days at 37° C. in a 5% CO2 in air-humidified atmosphere. Tritriated thymidine was then added to the culture and incubated again for 18 hours. Plates were harvested onto 96 Uni/Filter (Packard), the scintillation liquid (Microscint 0, Packard) was added and the plates were counted on a Top-Count counter (Packard). Results are expressed in counts per minute (cpm) and as a means of the triplicate wells. Statistical analysis was performed using unpaired Student's t test. […]

HLA-DRβ1*0101 = test: Proliferation of splenocytes from immunised HLA-DR1 mice with peptide-pulsed BM-DC (tritiated thymidine); format: cell-based; details: responding/total mice, after re-stimulation in vitro with relevant peptide
Procedure: as §3, §4, §5
Splenocytes from immunised animals cultured for 6 days in the presence of 10 μg of the test peptide were harvested, washed and counted. CD8+ T cells were depleted from the cell suspension using anti-CD8+ antibody coupled with magnetic beads (Dynal, UK) as per the manufacturers instructions. Cells were then washed in PBS and resuspended at 5×10^5/ml in T cell medium. 100 μl of T cells was then added to all wells. Anti-DR antibody (L243) or isotype control were added to some wells to confirm the MHC specificity of the T-cell response. LPS-treated dendritic cells were harvested, washed and incubated in 1 ml of DC medium with the addition of 10 íg of peptide at 37° C. for 5 hours. After washing, 10^3 peptide-pulsed DC were added to the relevant wells of lymphocyte cultures in 50 íl media. […] Plates were harvested onto 96 Uni/Filter (Packard), the scintillation liquid (Microscint 0, Packard) was added and the plates were counted on a Top-Count counter (Packard). […]

IFN-γ [2] = test: Cytokine production by splenocytes of immunised C57BL/6-DR4 mice, ELISA; format: cell-based; details: relevant versus irrelevant peptide
Procedure: as §5, §2
We further investigated HLA-DR class-II restricted responses to PAP peptides that were predicted to bind to HLA-DR1 and HLA-DR4 according to the evidence-based computer assisted algorithm […]. The peptides displaying high binding scores for both HLA-DR alleles were selected and further studied (Table 1). C57BL/6-DR4 mice were immunised with these predicted HLA-DR-restricted PAP and the proliferative and IFN-γ response to peptide stimulation in vitro was monitored by proliferation assays and cytokine measurements. PAP. 64 and PAP.

IFN-γ [3] = test: IFN-γ ELISPOT of rested CD8-depleted T cells with peptide-pulsed BM-DC; format: cell-based, mice; details: BM-DC pulsed with PAP.161 versus Flu peptide
IFN-γ [4] = test: Cytokine production by splenocytes of immunised FVB/N-DR1 mice, ELISA; format: cell-based
Procedure: as §5, §2

Row | Sequence | binding to HLA-A2 (T2 cells) (HLA-A2*0201) | inhibition of peptide specific lysis by HLA-A2 blocking antibody (RMAS-HLA-A2 cells; PAP.135-pulsed targets, splenocytes from PAP.135 immunised mice, two separate experiments) | lysis of PAP.135 pulsed RMAS-HLA-A2 cells (RMAS-HLA-A2 cells; splenocytes from PAP.135 immunised mice) | % cytoxicity at 50:1 ratio RMAS + irrel. (RMAS-HLA-A2 cells; splenocytes from PAP.135-immunised mice, 50:1) | % cytoxicity at 50:1 ratio RMAS + PAP.135 (RMAS-HLA-A2 cells; splenocytes from naïve (non-immunised) mouse stimulated with PAP.135 in vitro, 50:1) | % cytoxicity at 50:1 ratio RMAS + irrel. (RMAS-HLA-A2 cells; splenocytes from naïve (non-immunised) mouse, 50:1) | lysis of PAP.135 pulsed RMAS-HLA-A2 cells (RMAS-HLA-A2 cells; splenocytes from non-immunised (naïve) mice stimulated by PAP.135 in vitro) | lysis of LNCaP cells (LNCaP cells) | lysis of LCL cells (LCL cells) | IFN-γ release by splenocytes stimulated in vitro (IFN-γ [1]; PAP.135-immunised mice, versus irrelevant epitope, day 5) | IFN-γ release by splenocytes stimulated in vitro (IFN-γ [1]; non-immunised (naïve) mice) | IFN-γ release (PAP.135:irrel.) (IFN-γ [1]; ratio, splenocytes from naïve (non-immunised) mouse) | proliferative response to peptide-pulsed BM-DC (HLA-DRβ1*0401; 7 days in vitro stimulation, CD8+ T cells removed, rested 7 days) | effect of anti-HLA-DR antibody (L243) on proliferation (HLA-DRβ1*0401; not blocked by isotype control) | proliferation of splenocytes from immunised HLA-DR4 mice (HLA-DRβ1*0401; re-stimulated in vitro with peptide for 5 days) | number of HLA-DR4 mice whose splenocytes demonstrated specific proliferation (HLA-DRβ1*0401; responding/total mice, after re-stimulation in vitro with relevant peptide) | number of HLA-DR1 mice whose splenocytes demonstrated specific proliferation (HLA-DRβ1*0101) | IFN-γ production by splenocytes (IFN-γ [2]) | IFN-γ production, ELISPOT (IFN-γ [3]) | IFN-γ or IL-50 (cytokine) production of splenocytes (IFN-γ [4])
1 | ILLWQPIPV (listed as Homo sapiens) [PAP.135] | strong binding; also recorded: strongest HLA-A2 binding; also recorded: higher affinity to T2 cells | approximately 80% | lysed RMAS-HLA-A2 cells, pulsed with PAP.135 in a dose dependent manner; also recorded: highly cytotoxic | 2% and 7% and 9% and 4% and 1% and 5% and 3% | 13% | 11% | failed to demonstrate cytotoxicity; also recorded: unable to lyse target cells | dose-dependent lysis; also recorded: highly cytotoxic | not susceptible to lysis | significantly more IFN-γ; also recorded: significantly upregulated | independent of the peptide used for in vitro stimulation | 1.1 | – | – | – | – | – | – | – | –
2 | CPRFQELESETLKSE (listed as Homo sapiens) [PAP.161] | – | – | – | – | – | – | – | – | – | – | – | – | Significant proliferation; also recorded: consistently confirmed; also recorded: responded specifically | blocked in the presence of HLA-DR antibody; also recorded: blocked by the addition of L243 antibody; also recorded: inhibited by the addition of L243 antibody; also recorded: blocked by the presence of L243 antibody | Specific proliferation | 6 out of 8 and 4/6 | 3 out of 6 and 3/6 | produced in large quantities | high amount of IFN-γ in peptide specific manner; also recorded: producing IFN-γ | no production of cytokines could be detected in high enough levels
